From patent publication US9956204B2, “Composition for exterminating scuticociliates in fish including mebendazole” (NATIONAL INSTITUTE OF FISHERIES SCIENCE, priority 2016, dated 2018)

Experiments:
scuticociliates [1] = assay: Scuticociliates extermination effect of candidate substances in MEM medium; type: cell-based
Description: CHSE-214 cell line into which scuticociliates were inoculated was cultured in advance. The CHSE-214 cell line was cultured in an incubator using an MEM medium at 22° C. Scuticociliates inoculated into the cell line proliferated for 3 days by which the number reaches to be capable of analyzing in vitro anti-scuticociliates effect. Scuticociliates that feed on the cell line and sufficiently grow were mixed with the candidate substance and the activity of scuticociliates was measured.
In order to analyze the antiparasitic activity of the above 19 types of candidate substances of scuticociliates extermination drugs, scuticociliates were cultured for 3 days, and 100 μl (1×10^5) was dispensed into each well of 96 wells. The candidate substances were diluted by each concentration and the final volume was dispensed into 100 μl. Thereafter, the two were mixed and finally made into 200 μl.

[2] = within 24~48 hours; cited from earlier work
scuticociliates [3] = assay: Clinical trial: cumulative mortality of olive flounder artificially infected with scuticociliates; type: in vivo; conditions: observed for 15 days
Description: For the artificial infection, 1×10^5 of scuticociliates per fish were intraperitoneally injected into a total of […] juvenile olive flounder (average 10 cm). The experiment was performed by dividing them into 5 groups of every 20 fish per each experiment.

scuticociliates [4] = assay: Scuticociliates extermination effect of candidate substances in seawater medium; type: cell-based
Description: For this, scuticociliates were cultured in CHSE-214 cell line (using MEM medium), and then scuticociliates were collected and centrifuged with sterilized seawater or artificial seawater (20‰) to replace them with a seawater medium. Each of 100 μl (1×10^5) was dispensed into each well of 96 wells, followed by further culture for 30 minutes. The candidate substances diluted in seawater to have a volume of 100 μl per each concentration were mixed with scuticociliates to have the final volume of 200 μl and cultured for 4 hour.

lysozyme = conditions: in vivo
Description: (§1) Mebendazole was orally or immersing administered at a concentration of 100 or 500 mg/kg BW (ppm) to the olive flounder once for 1 hour. After 6 hours, 1 day, 2 days, 7 days and 14 days, a blood chemistry analysis and an immunological analysis were conducted.
The immunological analysis was conducted to measure the lysozyme activity of the kidney, spleen and serum (Lange et al., 2001, Parry, R. M. Chandau, R. C. & Shahani, R. M. (1965). A rapid and sensitive assay of muramidase. Proceedings of the Society for Experimental Biology Medicine 119, 384-386). In brief explanation, 100 μl of the prepared plasma was diluted with PBS (pH 6.2) in 2-fold to 4 steps on a 96-well plate and 100 μg of Micrococcus lysodekiticus (Sigma, USA) liquid diluted with PBS (pH 6.2) to 0.4 mg/ml was added to each well. After that, absorbance at 590 nm was measured every 0, 15, 30, 45 and 60 minutes. One unit of lysozyme activity was converted into the amount of a sample that decreases the absorbance 0.001/min.

[5] = Safety test according to field test: blood chemistry in Wando, Pohang and Jeju farms; conditions: field application concentration range
Description: as §1
(§2) The blood chemistry analysis was conducted using Fuji-Dri Chem 4500 (Fuji company, Japan) to measure hemoglobin (Hb), hematocrit (Ht), glucose (GLU), total protein (TP), total cholesterol (TCHO), GOT/GPT and lactic acid (LDH), etc.

scuticociliates [6] = assay: Field test of Mebendazole for exterminating scuticociliates in olive flounder farms; type: in vivo
From the text: The pharmaceutical efficacy was investigated after administering Mebendazole once daily for 5˜7 days to the olive flounder which are infected with scuticociliates in three major domestic olive flounder aquaculture area (Jeju, Wando, Pohang). First, the natural scuticociliates infection rate of each olive flounder farm was investigated, and the efficacy was investigated after administering Mebendazole accordingly. [table]

[7] = in vivo
Description: as §1, §2

[8] = seawater medium, 4 hour, Dosage 10 ppm
[9] = seawater medium, 4 hour, Dosage 50 ppm
[10] = seawater medium, 4 hour, Dosage 100 ppm
[11] = seawater medium, 4 hour, Dosage 200 ppm
[12] = seawater medium, 4 hour, Dosage 500 ppm
[13] = seawater medium, 4 hour, Dosage 600 ppm
[14] = seawater medium, 4 hour, Dosage 700 ppm
[15] = seawater medium, 4 hour, Dosage 1000 ppm
[16] = seawater medium, 4 hour, Dosage 1500 ppm
[17] = seawater medium, 4 hour, Dosage 2000 ppm
[18] = seawater medium, 4 hour, Dosage 2500 ppm
[19] = seawater medium, 4 hour, Dosage 3000 ppm
[20] = seawater medium, 4 hour, Dosage 3500 ppm
[21] = seawater medium, 4 hour, Dosage 4000 ppm

COC(=O)Nc1nc2ccc(C(=O)c3ccccc3)cc2[nH]1 [Mebendazole]
killing of scuticociliates compared with the 19 candidate substances (scuticociliates [1]; MEM medium): effect of killing scuticociliates at the lowest concentration | Survival or Death of scuticociliates (activity and shape, microscope) (scuticociliates [1]; MEM medium, Dosage 10 ppm): Survival | Survival or Death of scuticociliates (activity and shape, microscope) (scuticociliates [1]; MEM medium, Dosage 50 ppm): Survival | Survival or Death of scuticociliates (activity and shape, microscope) (scuticociliates [1]; MEM medium, Dosage 100 ppm): Death | Survival or Death of scuticociliates (activity and shape, microscope) (scuticociliates [1]; MEM medium, Dosage 200 ppm): Death | Survival or Death of scuticociliates (activity and shape, microscope) (scuticociliates [1]; MEM medium, Dosage 300 ppm): Death | Survival or Death of scuticociliates (activity and shape, microscope) (scuticociliates [1]; MEM medium, Dosage 400 ppm): Death | Survival or Death of scuticociliates (activity and shape, microscope) (scuticociliates [1]; MEM medium, Dosage 500 ppm): Death | Survival or Death of scuticociliates (activity and shape, microscope) (scuticociliates [1]; MEM medium, Dosage 600 ppm): Death | Survival or Death of scuticociliates (activity and shape, microscope) (scuticociliates [1]; MEM medium, Dosage 700 ppm): Death | Survival or Death of scuticociliates (activity and shape, microscope) (scuticociliates [1]; MEM medium, Dosage 800 ppm): Death | Survival or Death of scuticociliates (activity and shape, microscope) (scuticociliates [1]; MEM medium, Dosage 900 ppm): Death | Survival or Death of scuticociliates (activity and shape, microscope) (scuticociliates [1]; MEM medium, Dosage 1000 ppm): Death | oral dose excreted in the urine [2]: 10% | cumulative mortality rate (scuticociliates [3]; immersion administration 100 ppm for 1 hour): remarkably decreased | cumulative mortality rate (scuticociliates [3]; oral administration once, feed with 200 ppm): remarkably decreased | killing of scuticociliates compared with the 19 candidate substances (scuticociliates [4]; seawater medium): most effectively kills scuticociliates | Survival or Death of scuticociliates (activity and shape, microscope) (scuticociliates [4]; [8]): Survival | Survival or Death of scuticociliates (activity and shape, microscope) (scuticociliates [4]; [9]): Survival | Survival or Death of scuticociliates (activity and shape, microscope) (scuticociliates [4]; [10]): Death | Survival or Death of scuticociliates (activity and shape, microscope) (scuticociliates [4]; [11]): Death | Survival or Death of scuticociliates (activity and shape, microscope) (scuticociliates [4]; seawater medium, 4 hour, Dosage 300 ppm): Death | Survival or Death of scuticociliates (activity and shape, microscope) (scuticociliates [4]; seawater medium, 4 hour, Dosage 400 ppm): Death | Survival or Death of scuticociliates (activity and shape, microscope) (scuticociliates [4]; [12]): Death | Survival or Death of scuticociliates (activity and shape, microscope) (scuticociliates [4]; [13]): Death | Survival or Death of scuticociliates (activity and shape, microscope) (scuticociliates [4]; [14]): Death | Survival or Death of scuticociliates (activity and shape, microscope) (scuticociliates [4]; seawater medium, 4 hour, Dosage 800 ppm): Death | Survival or Death of scuticociliates (activity and shape, microscope) (scuticociliates [4]; seawater medium, 4 hour, Dosage 900 ppm): Death | Survival or Death of scuticociliates (activity and shape, microscope) (scuticociliates [4]; [15]): Death | effect on activity of lysozyme in serum, spleen, kidney (lysozyme): does not affect the activity of lysozyme | liver index (GOT and GPT) of infected fish after administration [5]: lowered to the normal range | infection of scuticociliates after administration (scuticociliates [6]; Juju farm, once daily for 5 days, infection rate before 50%): no infection of scuticociliates was detected | infection of scuticociliates after administration (scuticociliates [6]; Pohang farm, once daily for 7 days, infection rate before 70%): no infection of scuticociliates was detected | infection of scuticociliates after administration (scuticociliates [6]; Wando farm, once daily for 7 days, infection rate before 70%): no infection of scuticociliates was detected | MCHC numerical values [7]: did not show any significant differences | concentration of Hb in the blood [7]: slightly increases

CN1CCCN=C1/C=C/c1cccs1 [Pyrantel]
Survival or Death of scuticociliates (activity and shape, microscope) (scuticociliates [1]; MEM medium, Dosage 500 ppm): Survival | Survival or Death of scuticociliates (activity and shape, microscope) (scuticociliates [1]; MEM medium, Dosage 1000 ppm): Survival | Survival or Death of scuticociliates (activity and shape, microscope) (scuticociliates [1]; MEM medium, Dosage 1500 ppm): Survival | Survival or Death of scuticociliates (activity and shape, microscope) (scuticociliates [1]; MEM medium, Dosage 2000 ppm): Survival | Survival or Death of scuticociliates (activity and shape, microscope) (scuticociliates [1]; MEM medium, Dosage 2500 ppm): Survival | Survival or Death of scuticociliates (activity and shape, microscope) (scuticociliates [1]; MEM medium, Dosage 3000 ppm): Survival | Survival or Death of scuticociliates (activity and shape, microscope) (scuticociliates [1]; MEM medium, Dosage 3500 ppm): Survival | Survival or Death of scuticociliates (activity and shape, microscope) (scuticociliates [1]; MEM medium, Dosage 4000 ppm): Survival | Survival or Death of scuticociliates (activity and shape, microscope) (scuticociliates [4]; [12]): Survival | Survival or Death of scuticociliates (activity and shape, microscope) (scuticociliates [4]; [15]): Survival | Survival or Death of scuticociliates (activity and shape, microscope) (scuticociliates [4]; [16]): Survival | Survival or Death of scuticociliates (activity and shape, microscope) (scuticociliates [4]; [17]): Survival | Survival or Death of scuticociliates (activity and shape, microscope) (scuticociliates [4]; [18]): Survival | Survival or Death of scuticociliates (activity and shape, microscope) (scuticociliates [4]; [19]): Survival | Survival or Death of scuticociliates (activity and shape, microscope) (scuticociliates [4]; [20]): Survival | Survival or Death of scuticociliates (activity and shape, microscope) (scuticociliates [4]; [21]): Survival

CO[C@H]1C[C@H](O[C@@H]2/C(C)=C/C[C@@H]3C[C@@H](C[C@]4(CC[C@H](C)[C@@H](C5CCCCC5)O4)O3)OC(=O)[C@@H]3C=C(C)/C(=N/O)[C@H]4OC/C(=C\C=C\[C@@H]2C)[C@]43O)O[C@@H](C)[C@@H]1O [Selamectin]
Survival or Death of scuticociliates (activity and shape, microscope) (scuticociliates [1]): Survival and Δ and Death | Survival or Death of scuticociliates (activity and shape, microscope) (scuticociliates [4]): Survival and Δ and Death

c1ccc(C2CN3CCSC3=N2)cc1 (stereo not drawn) [Tetramisole]
Survival or Death of scuticociliates (activity and shape, microscope) (scuticociliates [1]; MEM medium, Dosage 500 ppm): Survival | Survival or Death of scuticociliates (activity and shape, microscope) (scuticociliates [1]; MEM medium, Dosage 1000 ppm): Survival | Survival or Death of scuticociliates (activity and shape, microscope) (scuticociliates [1]; MEM medium, Dosage 1500 ppm): Survival | Survival or Death of scuticociliates (activity and shape, microscope) (scuticociliates [1]; MEM medium, Dosage 2000 ppm): Survival | Survival or Death of scuticociliates (activity and shape, microscope) (scuticociliates [1]; MEM medium, Dosage 2500 ppm): Survival | Survival or Death of scuticociliates (activity and shape, microscope) (scuticociliates [1]; MEM medium, Dosage 3000 ppm): Survival | Survival or Death of scuticociliates (activity and shape, microscope) (scuticociliates [1]; MEM medium, Dosage 3500 ppm): Survival | Survival or Death of scuticociliates (activity and shape, microscope) (scuticociliates [1]; MEM medium, Dosage 4000 ppm): Survival | Survival or Death of scuticociliates (activity and shape, microscope) (scuticociliates [4]; [12]): Survival | Survival or Death of scuticociliates (activity and shape, microscope) (scuticociliates [4]; [15]): Survival | Survival or Death of scuticociliates (activity and shape, microscope) (scuticociliates [4]; [16]): Survival | Survival or Death of scuticociliates (activity and shape, microscope) (scuticociliates [4]; [17]): Survival | Survival or Death of scuticociliates (activity and shape, microscope) (scuticociliates [4]; [18]): Survival | Survival or Death of scuticociliates (activity and shape, microscope) (scuticociliates [4]; [19]): Survival | Survival or Death of scuticociliates (activity and shape, microscope) (scuticociliates [4]; [20]): Survival | Survival or Death of scuticociliates (activity and shape, microscope) (scuticociliates [4]; [21]): Survival

COP(=O)(OC)C(O)C(Cl)(Cl)Cl (stereo not drawn) [Trichlorfon]
Survival or Death of scuticociliates (activity and shape, microscope) (scuticociliates [1]; MEM medium, Dosage 200 ppm): Survival | Survival or Death of scuticociliates (activity and shape, microscope) (scuticociliates [1]; MEM medium, Dosage 500 ppm): Survival | Survival or Death of scuticociliates (activity and shape, microscope) (scuticociliates [1]; MEM medium, Dosage 600 ppm): Δ | Survival or Death of scuticociliates (activity and shape, microscope) (scuticociliates [1]; MEM medium, Dosage 700 ppm): Death | Survival or Death of scuticociliates (activity and shape, microscope) (scuticociliates [1]; MEM medium, Dosage 800 ppm): Death | Survival or Death of scuticociliates (activity and shape, microscope) (scuticociliates [1]; MEM medium, Dosage 900 ppm): Death | Survival or Death of scuticociliates (activity and shape, microscope) (scuticociliates [1]; MEM medium, Dosage 1000 ppm): Death | Survival or Death of scuticociliates (activity and shape, microscope) (scuticociliates [4]; [8]): Survival | Survival or Death of scuticociliates (activity and shape, microscope) (scuticociliates [4]; [9]): Survival | Survival or Death of scuticociliates (activity and shape, microscope) (scuticociliates [4]; [10]): Survival | Survival or Death of scuticociliates (activity and shape, microscope) (scuticociliates [4]; [11]): Survival | Survival or Death of scuticociliates (activity and shape, microscope) (scuticociliates [4]; [12]): Survival | Survival or Death of scuticociliates (activity and shape, microscope) (scuticociliates [4]; [13]): Death | Survival or Death of scuticociliates (activity and shape, microscope) (scuticociliates [4]; [14]): Death
